{"source": "patent US12729377B2", "about": "“RNAi agents and compositions for inhibiting expression of angiopoietin-like 3 (ANGPTL3), and methods of use” (Arrowhead Pharmaceuticals, Inc., priority 2017, dated 2026)", "key": {"ANGPTL3 protein": {"tested_on": "ANGPTL3 protein", "assay": "Example 12: serum ANGPTL3 protein by ELISA in LDLR knockout mice", "format": "in vivo, LDLR KO mice", "text": "(§1) To evaluate the effect of RNAi agent administration in a disease model, mice having a genetic mutation for the LDL receptor (referred to herein as LDLR KO mice) were commercially obtained (The Jackson Laboratory). The LDLR KO mice are homozygous for the Ldlr^tm1Her mutation, and have elevated serum cholesterol levels, particularly when placed on a high fat diet. For three weeks prior to the onset of the study, thirty-nine (39) LDLR KO mice were placed on a high fat diet (Teklad Custom Diets TD.88137). An additional eight (8) LDLR KO mice were placed on a normal chow diet over the same three-week period. Pre-dose serum samples were taken on day −15 and day −1 after a four hour fast. At day 1, each mouse was given a single subcutaneous administration of 200 μl/30 g animal body weight containing the respective mg/kg dose of an ANGPTL3 RNAi agent in D5W (dextrose in 5% water), control (D5W) with no RNAi agent, or a control RNAi agent that included a nucleotide sequence designed to target the Hepatitis B Virus (HBV) genome. A second injection of the same formulation was administered to the animals on day 29. The dosing regimen for the study is recited in the following Table 60:\n(§2) Each mouse remained on its respective diet through the duration of study. The RNAi agent tested (AD05488) included a modified sequence and an N-acetyl-galactosamine-containing targeting ligand conjugated to the 5′ terminal end of the sense strand. (See Tables 3, […] modified sequences and targeting ligand structures). The injections were performed between the skin and muscle (i.e. subcutaneous injections) into the loose skin over the neck and shoulder area. Serum was collected on days 8, 15, 22, 29 (pre-second dose), 36, 43, 50, and 57. LDLR KO mice were fasted for four hours prior to each collection. On day 15, four (4) LDLR KO mice from Groups 1, 2, and 3 (i.e., the groups being administered the high fat “Western” diet) were sacrificed after serum collection, and on day 29, an additional four (4) LDLR KO mice from Groups 1, 2, and 3 were sacrificed after serum collection, for the purpose of performing mRNA assessments.\n(§3) ANGPTL3 protein levels in serum were measured by ELISA assay (R&D Systems), according to the manufacturer's recommendations. Triglycerides, total cholesterol, high-density lipoprotein (HDL), and low-density lipoprotein (LDL) in serum were measured on a Cobas® Integra 400 (Roche Diagnostics), according to the manufacturer's recommendations.\n(§4) The ANGPTL3 protein levels, triglyceride levels, total cholesterol levels, HDL levels, and LDL levels for each animal were normalized. For normalization, respective levels of ANGPTL3 protein, TG, total cholesterol, HDL, or LDL for each animal at a time point was divided by the average pre-treatment level of expression in that animal (in this case the average of day −15 and day −1) to determine the ratio of expression “normalized to pre-treatment.”\n(§5) Expression at a specific time point was then normalized to the D5W control group that was administered the same diet (i.e., either the high fat “Western” diet or the normal chow-fed diet) by dividing the “normalized to pre-treatment” ratio for an individual animal by the mean “normalized to pretreatment” ratio of all mice in the D5W control group on the respective same diet, resulting in expression for each time point normalized to that in the control group."}, "ANGPTL3 gene [1]": {"tested_on": "ANGPTL3 gene", "assay": "Example 12: serum triglycerides in LDLR knockout mice", "format": "in vivo, LDLR KO mice", "text": "as §1, §2, §3, §4, §5"}, "ANGPTL3 gene [2]": {"tested_on": "ANGPTL3 gene", "assay": "Example 13: serum triglycerides in HFCS diet-fed Rhesus monkeys", "format": "in vivo", "details": "for Avg TG (Triglycerides) Normalized to Pre-Treatment (Fasted): 4.0 mg/kg sc on day 1 and day 29", "procedure": "ANGPTL3 RNAi agent AD05488 was further evaluated in high-fructose corn syrup (HFCS) diet-fed Rhesus monkeys. Rhesus monkeys were placed on an HFCS diet 37 days prior to dosing. These animals were known to develop increased plasma triglycerides greater than 180 mg/dL on the HFCS diet. On day 1 and again on day 29, four (4) Rhesus monkeys were administered a subcutaneous injection containing 4.0 mg/kg of ANGPTL3 RNAi agent AD05488 formulated in saline (n=4). Two additional Rhesus monkeys were administered normal saline control.\nFasted blood samples were drawn for analysis, and serum samples were analyzed on days-8 (predose), 8, 15, 21, 29, and 36. ANGPTL3 expression levels, triglycerides, total cholesterol, high-density lipoprotein (HDL), and low-density lipoprotein (LDL) in serum were measured on a Cobas® Integra 400 (Roche Diagnostics), according to the manufacturer's recommendations.\nThe ANGPTL3 protein levels, triglyceride levels, total cholesterol levels, HDL levels, and LDL levels for each animal were normalized. For normalization, the level of ANGPTL3 protein, triglyceride, HDL, and total cholesterol, respectively, for each animal at a time point, was divided by the pre-treatment level of expression in that animal (in this case at day −8) to determine the ratio of expression “normalized to pre-treatment.”"}, "[3]": {"details": "3.0 mg/kg on days 1 and 29 (Groups 2 and 5), LDLR KO mice"}, "[4]": {"details": "3.0 mg/kg sc day 1, High Fat Diet, Day 8"}, "[5]": {"details": "3.0 mg/kg sc day 1, High Fat Diet, Day 15"}, "[6]": {"details": "3.0 mg/kg sc day 1, High Fat Diet, Day 22"}, "[7]": {"details": "3.0 mg/kg sc day 1, High Fat Diet, Day 29 (pre-second dose)"}, "[8]": {"details": "3.0 mg/kg sc day 1, Normal Diet, Day 8"}, "[9]": {"details": "3.0 mg/kg sc day 1, Normal Diet, Day 15"}, "[10]": {"details": "3.0 mg/kg sc day 1, Normal Diet, Day 22"}, "[11]": {"details": "3.0 mg/kg sc day 1, Normal Diet, Day 29 (pre-second dose)"}, "[12]": {"details": "3.0 mg/kg sc days 1 and 29, High Fat Diet, Day 36"}, "[13]": {"details": "3.0 mg/kg sc days 1 and 29, High Fat Diet, Day 43"}, "[14]": {"details": "3.0 mg/kg sc days 1 and 29, High Fat Diet, Day 50"}, "[15]": {"details": "3.0 mg/kg sc days 1 and 29, High Fat Diet, Day 57"}, "[16]": {"details": "3.0 mg/kg sc days 1 and 29, Normal Diet, Day 36"}, "[17]": {"details": "3.0 mg/kg sc days 1 and 29, Normal Diet, Day 43"}, "[18]": {"details": "3.0 mg/kg sc days 1 and 29, Normal Diet, Day 50"}, "[19]": {"details": "3.0 mg/kg sc days 1 and 29, Normal Diet, Day 57"}, "[20]": {"details": "day 57, two 3 mg/kg doses, LDLR KO mice on high fat Western diet"}}, "note": "In the oligonucleotide strings, read from the 5' end, every base follows the letter of its sugar. An asterisk marks phosphorothioate; unmarked linkages are phosphodiester. Other units and linkages are bracketed, terminal groups are in braces. A string of capitals states the bases alone. {NAG37} = tridentate N-acetyl-galactosamine targeting ligand, structure (NAG37)s; [invAb] = inverted abasic unit; m = 2'-O-methyl; f = 2'-fluoro"}
{"substance": "AD05488: RNAi agent duplex: antisense AM07235-AS, sense AM07234-SS (antisense mU*fA*mC*fUmGfAmUfCmAfAmAfUmAfUmGfUmUfGmAfG*mC; sense {NAG37}*[invAb]*mGmCmUmCmAmAmCmAfUfAfUmUmUmGmAmUmCmAmGmUmA*[invAb])", "values": [{"measurement": "reductions in ANGPTL3 protein levels", "setting": "ANGPTL3 protein; [3]", "value": "significant reductions"}, {"measurement": "Avg ANGPTL3 Protein Normalized to Pre-Treatment and Control (Diet Matched)", "setting": "ANGPTL3 protein; [4]", "value": 0.013}, {"measurement": "Avg ANGPTL3 Protein Normalized to Pre-Treatment and Control (Diet Matched)", "setting": "ANGPTL3 protein; [5]", "value": 0.009}, {"measurement": "Avg ANGPTL3 Protein Normalized to Pre-Treatment and Control (Diet Matched)", "setting": "ANGPTL3 protein; [6]", "value": 0.011}, {"measurement": "Avg ANGPTL3 Protein Normalized to Pre-Treatment and Control (Diet Matched)", "setting": "ANGPTL3 protein; [7]", "value": 0.011}, {"measurement": "Avg ANGPTL3 Protein Normalized to Pre-Treatment and Control (Diet Matched)", "setting": "ANGPTL3 protein; [8]", "value": 0.042}, {"measurement": "Avg ANGPTL3 Protein Normalized to Pre-Treatment and Control (Diet Matched)", "setting": "ANGPTL3 protein; [9]", "value": 0.037}, {"measurement": "Avg ANGPTL3 Protein Normalized to Pre-Treatment and Control (Diet Matched)", "setting": "ANGPTL3 protein; [10]", "value": 0.043}, {"measurement": "Avg ANGPTL3 Protein Normalized to Pre-Treatment and Control (Diet Matched)", "setting": "ANGPTL3 protein; [11]", "value": 0.060}, {"measurement": "Avg ANGPTL3 Protein Normalized to Pre-Treatment and Control (Diet Matched)", "setting": "ANGPTL3 protein; [12]", "value": 0.005}, {"measurement": "Avg ANGPTL3 Protein Normalized to Pre-Treatment and Control (Diet Matched)", "setting": "ANGPTL3 protein; [13]", "value": 0.005}, {"measurement": "Avg ANGPTL3 Protein Normalized to Pre-Treatment and Control (Diet Matched)", "setting": "ANGPTL3 protein; [14]", "value": 0.005}, {"measurement": "Avg ANGPTL3 Protein Normalized to Pre-Treatment and Control (Diet Matched)", "setting": "ANGPTL3 protein; [15]", "value": 0.007}, {"measurement": "Avg ANGPTL3 Protein Normalized to Pre-Treatment and Control (Diet Matched)", "setting": "ANGPTL3 protein; [16]", "value": 0.024}, {"measurement": "Avg ANGPTL3 Protein Normalized to Pre-Treatment and Control (Diet Matched)", "setting": "ANGPTL3 protein; [17]", "value": 0.024}, {"measurement": "Avg ANGPTL3 Protein Normalized to Pre-Treatment and Control (Diet Matched)", "setting": "ANGPTL3 protein; [18]", "value": 0.032}, {"measurement": "Avg ANGPTL3 Protein Normalized to Pre-Treatment and Control (Diet Matched)", "setting": "ANGPTL3 protein; [19]", "value": 0.037}, {"measurement": "ANGPTL3 protein normalized to pre-treatment and control (diet matched)", "setting": "ANGPTL3 protein; [20]", "value": 0.007}, {"measurement": "reduction in ANGPTL3 protein levels compared to control", "setting": "ANGPTL3 protein; [20]", "value": "approximately 99%"}, {"measurement": "reductions in TG levels", "setting": "ANGPTL3 gene [1]; [3]", "value": "significant reductions"}, {"measurement": "Avg TG (Triglycerides) Normalized to Pre-Treatment and Control (Diet Matched)", "setting": "ANGPTL3 gene [1]; [4]", "value": 0.121}, {"measurement": "Avg TG (Triglycerides) Normalized to Pre-Treatment and Control (Diet Matched)", "setting": "ANGPTL3 gene [1]; [5]", "value": 0.086}, {"measurement": "Avg TG (Triglycerides) Normalized to Pre-Treatment and Control (Diet Matched)", "setting": "ANGPTL3 gene [1]; [6]", "value": 0.094}, {"measurement": "Avg TG (Triglycerides) Normalized to Pre-Treatment and Control (Diet Matched)", "setting": "ANGPTL3 gene [1]; [7]", "value": 0.096}, {"measurement": "Avg TG (Triglycerides) Normalized to Pre-Treatment and Control (Diet Matched)", "setting": "ANGPTL3 gene [1]; [8]", "value": 0.472}, {"measurement": "Avg TG (Triglycerides) Normalized to Pre-Treatment and Control (Diet Matched)", "setting": "ANGPTL3 gene [1]; [9]", "value": 0.503}, {"measurement": "Avg TG (Triglycerides) Normalized to Pre-Treatment and Control (Diet Matched)", "setting": "ANGPTL3 gene [1]; [10]", "value": 0.473}, {"measurement": "Avg TG (Triglycerides) Normalized to Pre-Treatment and Control (Diet Matched)", "setting": "ANGPTL3 gene [1]; [11]", "value": 0.480}, {"measurement": "Avg TG (Triglycerides) Normalized to Pre-Treatment and Control (Diet Matched)", "setting": "ANGPTL3 gene [1]; [12]", "value": 0.104}, {"measurement": "Avg TG (Triglycerides) Normalized to Pre-Treatment and Control (Diet Matched)", "setting": "ANGPTL3 gene [1]; [13]", "value": 0.084}, {"measurement": "Avg TG (Triglycerides) Normalized to Pre-Treatment and Control (Diet Matched)", "setting": "ANGPTL3 gene [1]; [14]", "value": 0.091}, {"measurement": "Avg TG (Triglycerides) Normalized to Pre-Treatment and Control (Diet Matched)", "setting": "ANGPTL3 gene [1]; [15]", "value": 0.079}, {"measurement": "Avg TG (Triglycerides) Normalized to Pre-Treatment and Control (Diet Matched)", "setting": "ANGPTL3 gene [1]; [16]", "value": 0.548}, {"measurement": "Avg TG (Triglycerides) Normalized to Pre-Treatment and Control (Diet Matched)", "setting": "ANGPTL3 gene [1]; [17]", "value": 0.348}, {"measurement": "Avg TG (Triglycerides) Normalized to Pre-Treatment and Control (Diet Matched)", "setting": "ANGPTL3 gene [1]; [18]", "value": 0.625}, {"measurement": "Avg TG (Triglycerides) Normalized to Pre-Treatment and Control (Diet Matched)", "setting": "ANGPTL3 gene [1]; [19]", "value": 0.438}, {"measurement": "reductions in triglyceride levels", "setting": "ANGPTL3 gene [2]; 4.0 mg/kg on days 1 and 29, HFCS diet-fed Rhesus monkeys", "value": "reductions"}, {"measurement": "Avg TG (Triglycerides) Normalized to Pre-Treatment (Fasted)", "setting": "ANGPTL3 gene [2]; Day 8", "value": 0.351}, {"measurement": "Avg TG (Triglycerides) Normalized to Pre-Treatment (Fasted)", "setting": "ANGPTL3 gene [2]; Day 15", "value": 0.244}, {"measurement": "Avg TG (Triglycerides) Normalized to Pre-Treatment (Fasted)", "setting": "ANGPTL3 gene [2]; Day 21", "value": 0.233}, {"measurement": "Avg TG (Triglycerides) Normalized to Pre-Treatment (Fasted)", "setting": "ANGPTL3 gene [2]; Day 29", "value": 0.302}, {"measurement": "Avg TG (Triglycerides) Normalized to Pre-Treatment (Fasted)", "setting": "ANGPTL3 gene [2]; Day 36", "value": 0.177}]}
